The source made the active and inactive calls.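 Rule for the calls: active = EC50 below 50 µM in the dose-response confirmation; inactive = the rest.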
system: CSM14.1 thapsigargin-induced death rescue, ATP luminescence; experiment: protection against thapsigargin-triggered cell killing – 384-well, CSM14.1, ATP luminescence, primary screen (AID 1222);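 note: death triggered by thapsigargin at about 15 µM added after 2 h compound pretreatment; cell ATP read after overnight thapsigargin exposure of roughly 18 to 22 hours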

Compound	EC50
COc1ccc(/C=C/C(=O)N2CCCc3ccccc32)cc1	> 100 µM (inactive)
CCC(=O)Nc1nc2ccccc2n1Cc1ccc(Cl)cc1	> 100 µM (inactive)
CCCC1=[N+](CC(C)=O)CCn2c(C)ccc21	> 100 µM (inactive)
Cc1c(Cl)c(C(F)F)nn1CC(=O)NC1C(=O)N2C(C(=O)O)=C(CSc3nnnn3C)CSC12 (stereo not given)	> 100 µM (inactive)
CCCCCCn1c(O)c(/C=C2\C=NN=C2c2ccccc2)sc1=S	> 100 µM (inactive)
COc1ccc(C(=O)C(OC(=O)c2ccccc2)c2ccccc2)cc1 (stereo not given)	66.5 µM (inactive)
Cc1cccc(C(=O)O/N=C(/c2ccccc2)c2ccncc2)c1	> 100 µM (inactive)
COc1ccc(CNC(=O)CCCn2nc(C)c([N+](=O)[O-])c2C)cc1OC	> 100 µM (inactive)
O=c1c2c(-c3ccccc3)csc2ncn1/N=C/c1cccc([N+](=O)[O-])c1O	> 100 µM (inactive)
COc1ccc(NC2=Nc3ccccc3N3C2=Nc2c(c(C)nn2-c2ccc(C)cc2)C3c2cccnc2)cc1 (stereo not given)	92.6 µM (inactive)
COC(=O)[C@@]1(Cc2ccc(F)cc2)[C@H]2c3cc(C(=O)N4CCCC4)n(CCc4c[nH]c5ccc(OC)cc45)c3C[C@H]2CN1C(=O)c1ccccc1	66.2 µM (inactive)
COc1ccc(CN(C(=O)c2ccc3c(c2)OCCO3)C(C(=O)NC2CCCCC2)c2ccc3ncccc3c2)cc1 (stereo not given)	31.4 µM
CCOC(=O)C1=C(NC(=S)NC(=O)c2ccccc2)c2ccccc2CC1(C)C	> 100 µM (inactive)
C#CCOCCOCCOCCNc1nc(N2CCN(C(=O)[C@H]([C@@H](C)CC)n3cc(CCCN=C(N)N)nn3)CC2)nc(N2CCN(C(=O)[C@H](CCCCN)n3cc(CCCC)nn3)CC2)n1	> 100 µM (inactive)
CCN1CCc2c(OCC(=O)N3N=C(c4cccs4)CC3c3ccc(F)cc3)cccc2C1=O (stereo not given)	42 µM
O=C(NC1CCCCC1)C(c1ccc2ncccc2c1)N(Cc1ccccc1)C(=O)c1ccc2c(c1)OCCO2 (stereo not given)	32.3 µM
O=C(Nc1nc(-c2cc(F)ccc2F)cs1)c1ccccn1	> 100 µM (inactive)
Cc1ccc(-c2nnn(CC(=O)N(Cc3cccs3)C(C(=O)NC3CCCC3)c3ccncc3)n2)cc1 (stereo not given)	> 100 µM (inactive)
O=C(c1ccc(N2CCCC2=O)cc1)N1CCCCCC1	> 100 µM (inactive)
CC12C(=O)N(c3ccc(C(=O)N4CCOCC4)cc3)C(=O)C1C1c3ccccc3C2c2ccccc21 (stereo not given)	> 100 µM (inactive)

Compound	EC50
Cc1cc(CNC(=O)Cc2ccccc2)c2ccccc2n1	> 100 µM (inactive)
Cc1ccc(OCC(=O)NCCC2=CCCCC2)cc1	> 100 µM (inactive)
COc1ccc(C2=C/C(=C\c3cccc(OC(C)=O)c3)C(=O)O2)cc1	> 100 µM (inactive)
C/C(=N\NC(=S)Nc1cccc(C)c1)c1ccco1	> 100 µM (inactive)
CCCCC(=O)NNC(=S)NC(=O)c1ccc(C)cc1	> 100 µM (inactive)
CNC(=O)c1c(NC(=O)c2nc3ccccc3s2)sc2c1CCC2	> 100 µM (inactive)
COCCn1c(C)cc(C(=O)COC(=O)CCN2C(=O)c3ccccc3C2=O)c1C	> 100 µM (inactive)
O=C(NC1CCCCC1)C(c1ccc2ncccc2c1)N(Cc1ccc2c(c1)OCO2)C(=O)c1ccc2c(c1)OCCO2 (stereo not given)	21.3 µM
Cc1ccc2cccc(N=Cc3c(C)[nH]n(-c4ccccc4)c3=O)c2n1	> 100 µM (inactive)
CCOc1ccccc1NC(=O)C(OC(=O)c1ccccc1NS(=O)(=O)c1cccs1)c1ccccc1 (stereo not given)	> 100 µM (inactive)
O=c1[nH]c(-c2ccccn2)nc2sc(-c3ccccc3)cc12	> 100 µM (inactive)
CCN(CC)c1ccc(/C=C(/C#N)c2nc3ccc(C)cc3[nH]2)c(OC(C)C)c1	> 100 µM (inactive)
C#CCOCCOCCOCCNc1nc(N2CCN(C(=O)[C@H](C)n3cc(CCCN=C(N)N)nn3)CC2)nc(N2CCN(C(=O)[C@H](C)n3cc(CCCN=C(N)N)nn3)CC2)n1	> 100 µM (inactive)
CC[C@@H](C)[C@@H](C(=O)N1CCN(C(=O)OC(C)(C)C)CC1)n1cc(CCCN=C(NC(=O)OC(C)(C)C)NC(=O)OC(C)(C)C)nn1	58.5 µM (inactive)
CCN1C(=O)/C(=C/c2ccc3c(c2)CCN3CCCCl)C(=O)NC1=S	44.7 µM
COC(=O)c1ccc(NC(=O)C2CC(=O)N(c3ccc(C)cc3)C2)cc1 (stereo not given)	> 100 µM (inactive)
C#CCOCCOCCOCCNc1nc(N2CCN(C(=O)[C@H](CCCCN)n3cc(CCCC)nn3)CC2)nc(N2CCN(C(=O)[C@H](CCCCN)n3cc(CCCC)nn3)CC2)n1	> 100 µM (inactive)
Cc1nc(N2CCN(C(=O)c3ccco3)CC2)c2c3c(sc2n1)CC(C)CC3 (stereo not given)	58.7 µM (inactive)
O=C(CSc1nnnn1-c1ccccc1)c1cc2ccccc2oc1=O	> 100 µM (inactive)
O=S(=O)(c1ccc2c(c1)OCCO2)N1CCN(c2nc(-c3cccnc3)nc3ccccc23)CC1	76.4 µM (inactive)

Compound	EC50
C=C(C)CNC(=S)N/N=C/c1ccc([N+](=O)[O-])cc1	> 100 µM (inactive)
O=C(Nc1nonc1-c1ccc(Cl)cc1)c1ccccc1	> 100 µM (inactive)
Cc1ccc2c(C(=O)N3CCN(c4ccccc4)CC3)cc(-c3cccnc3)nc2c1C	81.3 µM (inactive)
CN1CCC(O)(c2ccccc2)C(C(=O)c2ccccc2)C1 (stereo not given)	> 100 µM (inactive)
CCOc1cc(/C=N/NC(=O)COc2cccc(C)c2)ccc1OC(=O)c1cccs1	> 100 µM (inactive)
O=C(NC1CCCCC1)C(c1ccncc1)N(Cc1ccccc1)C(=O)c1ccc(-c2ccccc2)[nH]1 (stereo not given)	52.5 µM (inactive)
CCC(=O)NC(=S)NNC(=O)c1ccc(OC)cc1	> 100 µM (inactive)
COc1ccc(-c2oc3ccccc3c(=O)c2OC(C)=O)cc1	> 100 µM (inactive)
CC(C)CC(NC(=O)OC(C)(C)C)c1cn([C@@H](Cc2cc3ccccc3[nH]2)C(=O)N2CCN(C(=O)OC(C)(C)C)CC2)nn1 (stereo not given in full)	62.2 µM (inactive)
CC1=NN(/C(=N\c2nnc(C)s2)Nc2ccccc2)[C@H](c2ccc(C)cc2)S1	> 100 µM (inactive)
Clc1ccc(OCCCN2CCCCC2)c(Br)c1	> 100 µM (inactive)
O=C(NC1CCCCC1)C(c1ccc2ncccc2c1)N(Cc1ccc(F)cc1)C(=O)c1ccc2c(c1)OCCO2 (stereo not given)	28.8 µM
CC(C)C(=O)N1CCC(CN=Cc2c(O)n(C3CCCCC3)c(=O)n(C3CCCCC3)c2=O)CC1	70.3 µM (inactive)
CCO[C@@H]1OC(C(=O)N2CCN(Cc3ccc4c(c3)OCO4)CC2)=C[C@H](c2csc3ccccc23)[C@H]1CCCO	86.1 µM (inactive)
CCc1ccc(CC2S/C(=C(\C#N)C(C)=O)NC2=O)cc1 (stereo not given)	> 100 µM (inactive)
COc1ccc(C(=O)NNC(=S)NC(=O)C(C)(C)C)cc1	> 100 µM (inactive)
CC12COC3(P(=O)(c4ccccc4)c4ccccc4)CC1CCC23CP(=O)(c1ccccc1)c1ccccc1 (stereo not given)	40.2 µM
COc1ccccc1Cn1c(=S)[nH]c2cc(C(=O)NCC3CCCO3)ccc2c1=O (stereo not given)	> 100 µM (inactive)
COc1ccc(CN(C(=O)c2cccs2)C(C(=O)NC2CCCCC2)c2ccc3ncccc3c2)cc1 (stereo not given)	68.5 µM (inactive)
CCCCC(=O)NC(=S)NNC(=O)c1ccc(Cl)cc1Cl	> 100 µM (inactive)

Reference: PubChem BioAssay AID1222 (Sanford-Burnham Center for Chemical Genomics, 2008)
